One test deals with CD8+ T cells. Kind of test: In vitro immunogenicity: T-cell priming with aAPCs loaded with peptide/MHC and anti-CD28, pMHC multimer readout. The class given is cell-based, human. Particulars: pMHC multimer readout after T-cell priming. As for the experimental part:
After three cycles of stimulation, the detection of peptide-reactive cells was performed by 2D multimer staining with B*44/SEQ ID NO: 469 (FIG. 3A), B*44/SEQ ID NO: 512 (FIG. 3B), B*44/SEQ ID NO: 9 (FIG. 3C), B*44/SEQ ID NO: 11 (D), B*44/SEQ ID NO: 17 (E), B*44/SEQ ID NO: 35 (F) or B*44/SEQ ID NO: 41 (FIG. 3G). Right panels (FIGS. 3A through 3G) show control staining of cells stimulated with irrelevant B*44/peptide complexes. Viable singlet cells were gated for CD8+ lymphocytes. Boolean gates helped excluding false-positive events detected with multimers specific for different peptides.
In order to obtain information regarding the immunogenicity of the TUMAPs of the present invention, the inventors performed investigations using an in vitro T-cell priming assay based on repeated stimulations of CD8+ T cells with artificial antigen presenting cells (aAPCs) loaded with peptide/MHC complexes and anti-CD28 antibody.
In order to perform in vitro stimulations by artificial antigen presenting cells loaded with peptide-MHC complex (pMHC) and anti-CD28 antibody, the inventors first isolated CD8+ T cells from fresh HLA-A*02 leukapheresis products via positive selection using CD8 microbeads (Miltenyi Biotec, Bergisch-Gladbach, Germany) of healthy donors obtained from the University clinics Mannheim, Germany, after informed consent.
PBMCs and isolated CD8+ lymphocytes were incubated in T-cell medium (TCM) until use consisting of RPMI-Glutamax (Invitrogen, Karlsruhe, Germany) supplemented with 10% heat inactivated human AB serum (PAN-Biotech, Aidenbach, Germany), 100 U/ml Penicillin/100 μg/ml Streptomycin (Cambrex, Cologne, Germany), 1 mM sodium pyruvate (CC Pro, Oberdorda, Germany), 20 μg/ml Gentamycin (Cambrex). 2.5 ng/ml IL-7 (PromoCell, Heidelberg, Germany) and 10 U/ml IL-2 (Novartis Pharma, Nümberg, Germany) were also added to the TCM at this step.
Generation of pMHC/anti-CD28 coated beads, T-cell stimulations and readout was performed in a highly defined in vitro system using four different pMHC molecules per stimulation condition and 8 different pMHC molecules per readout condition.
The purified co-stimulatory mouse IgG2a anti human CD28 Ab 9.3 (Jung et al., 1987) was chemically biotinylated using Sulfo-N-hydroxysuccinimidobiotin as recommended by the manufacturer (Perbio, Bonn, Germany). Beads used were 5.6 μm diameter streptavidin coated polystyrene particles (Bangs Laboratories, Illinois, USA).
800.000 beads/200 μl were coated in 96-well plates in the presence of 4×12.5 ng different biotin-pMHC, washed and 600 ng biotin anti-CD28 were added subsequently in a volume of 200 μl. Stimulations were initiated in 96-well plates by co-incubating 1×10^6 CD8+ T cells with 2×10^5 washed coated beads in 200 μl TCM supplemented with 5 ng/ml IL-12 (PromoCell) for 3 days at 37° C. Half of the medium was then exchanged by fresh TCM supplemented with 80 U/ml IL-2 and incubating was continued for 4 days at 37° C. This stimulation cycle was performed for a total of three times. For the pMHC multimer readout using 8 different pMHC molecules per condition, a two-dimensional combinatorial coding approach was used as previously described (Andersen et al., 2012) with minor modifications encompassing coupling to 5 different fluorochromes. Finally, multimeric analyses were performed by staining the cells with Live/dead near IR dye (Invitrogen, Karlsruhe, Germany), CD8-FITC antibody clone SK1 (BD, Heidelberg, Germany) and fluorescent pMHC multimers. For analysis, a BD LSRII SORP cytometer equipped with appropriate lasers and filters was used. Peptide specific cells were calculated as percentage of total CD8+ cells. Evaluation of multimeric analysis was done using the FlowJo software (Tree Star, Oregon, USA). In vitro priming of specific multimer+CD8+ lymphocytes was detected by comparing to negative control stimulations.

For another test, the target named is HLA-B*44:05 (Homo sapiens, UniProt P01889, A223V/A65T/A93T/A95T/D201E/D98Y/E176V/E187L/E204Q/E69K/G107R/H137Y/K202T/L105A/L119I/N104T/N87E/Q56L/Q94N/R106L/R155S/R180D/S101N/S121R/S35A/S48T/T118I/V36M/W191S/Y91S). Kind of test: MHC binding assay (UV-ligand exchange, β2m ELISA, peptide exchange yield). Particulars: binding to HLA-B*44:05. Put shortly: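 Binding is read as exchange yield, i.e. stabilized complex remaining after UV cleavage of a photolabile ligand in the presence of the candidate peptide. Streptavidin-captured monomers (100-fold dilution) are probed with HRP-anti-β2m, 1h at 37° C, TMB, A450. Standard curve: HLA-A*02:01/MLA-001 monomers at 15-500 ng/ml.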
(In general: ELISA stands for enzyme-linked immunosorbent assay.)

Consider “71 (AEVGDIIKV; listed as Homo sapiens) [compound 71]”, for which the “Wells positive [%]” value with CD8+ T cells (Table 10b) is “++ (20%-49% = ++)”. Moreover, in the test with HLA-B*44:05, the “Peptide exchange (MHC class I binding score, peptide exchange yield)” value (“Peptide exchange” for short) was “++ (>20% = ++)”. In the case of “59 (AEIEADRSYQ; listed as Homo sapiens) [compound 59]”, in the test on CD8+ T cells (Table 10b), the “Wells positive [%]” value is listed as “+ (<20% = +)”. Further, the “Peptide exchange” value in the test with HLA-B*44:05 is “++ (>20% = ++)”. The corresponding values for “17 (SEIYQPRGF; listed as Homo sapiens) [compound 17]” are “++++ (>=70% = ++++)” and “+++ (>50 = +++)”. For “60 (EEAVRSVAF; listed as Homo sapiens) [compound 60]”, in that order: “++ (20%-49% = ++)” and “+++ (>50 = +++)”. For “83 (TEGGTQKTF; listed as Homo sapiens) [compound 83]”, in that order: “++++ (>=70% = ++++)” and “+++ (>50 = +++)”. “22 (TEEITEGVW; listed as Homo sapiens) [compound 22]”: the “Wells positive [%]” value with CD8+ T cells (Table 10b) was “+ (<20% = +)”. Further, the “Peptide exchange” value with HLA-B*44:05 is recorded as “++++ (>75% = ++++)”. “42 (SEENTGKTYF; listed as Homo sapiens) [compound 42]”: the “Wells positive [%]” value in the test on CD8+ T cells (Table 10b) is recorded as “++ (20%-49% = ++)”. In addition, the “Peptide exchange” value in the test with HLA-B*44:05 is on record as “+++ (>50 = +++)”. For “16 (NESDRLVYF; listed as Homo sapiens) [compound 16]”, in that order: “++ (20%-49% = ++)” and “+++ (>50 = +++)”. For “41 (EENTGKTYF; listed as Homo sapiens) [compound 41]”, in that order: “++ (20%-49% = ++)” and “+++ (>50 = +++)”. The corresponding values for “45 (EEINELNRMI; listed as Homo sapiens) [compound 45]” are “+++ (50%-69% = +++)” and “+++ (>50 = +++)”. “31 (MESAKETRY; listed as Homo sapiens) [compound 31]”: in the test with CD8+ T cells (Table 10b), the “Wells positive [%]” value is “+ (<20% = +)”. Besides, the “Peptide exchange” value with HLA-B*44:05 is “+++ (>50 = +++)”. For “4 (AEALGAAKKL; listed as Homo sapiens) [compound 4]”, in that order: “+ (<20% = +)” and “++ (>20% = ++)”. The corresponding values for “30 (EEFCFSVRF; listed as Homo sapiens) [compound 30]” are “+ (<20% = +)” and “+++ (>50 = +++)”.

With “11 (EENIVAIGI; listed as Homo sapiens) [compound 11]”, in the test on CD8+ T cells (Table 10b), the “Wells positive [%]” value is given as “+++ (50%-69% = +++)”. In addition, in the test with HLA-B*44:05, the “Peptide exchange” value is listed as “+++ (>50 = +++)”. For “32 (REYEYDLKW; listed as Homo sapiens) [compound 32]”, in that order: “+ (<20% = +)” and “++++ (>75% = ++++)”. For “420 (MEVDPIGHVY; listed as Homo sapiens) [compound 420]”, in that order: “+ (<20% = +)” and “+++ (>50 = +++)”.

As to “66 (AEVTLNNTI; listed as Homo sapiens) [compound 66]”, the “Wells positive [%]” value with CD8+ T cells (Table 10b) is reported as “+ (<20% = +)”. In the test with HLA-B*44:05, the “Peptide exchange” value was “+++ (>50 = +++)”. For “47 (TEVHSSPAQRW; listed as Homo sapiens) [compound 47]”, in that order: “+++ (50%-69% = +++)” and “+++ (>50 = +++)”. The corresponding values for “39 (AEAMGKFKQCF; listed as Homo sapiens) [compound 39]” are “+ (<20% = +)” and “+++ (>50 = +++)”.

Consider “29 (TENPKKFKI; listed as Homo sapiens) [compound 29]”, for which the “Wells positive [%]” value in the test with CD8+ T cells (Table 10b) is recorded as “++++ (>=70% = ++++)”. In addition, the “Peptide exchange” value in the test with HLA-B*44:05 is given as “+++ (>50 = +++)”. For “7 (SESDLVNFI; listed as Homo sapiens) [compound 7]”, in that order: “+ (<20% = +)” and “+++ (>50 = +++)”. For the substance “12 (KEVDPTGHSF; listed as Homo sapiens) [compound 12]”, the “Wells positive [%]” value with CD8+ T cells (Table 10b) is “+ (<20% = +)”. In the test with HLA-B*44:05, the “Peptide exchange” value is “+++ (>50 = +++)”.

For “15 (MEAELVRRI; listed as Homo sapiens) [compound 15]”, the “Wells positive [%]” value in the test on CD8+ T cells (Table 10b) is given as “+ (<20% = +)”. Further, in the test with HLA-B*44:05, the “Peptide exchange” value is reported as “+++ (>50 = +++)”. The corresponding values for “24 (EELALRIGL; listed as Homo sapiens) [compound 24]” are “++++ (>=70% = ++++)” and “+++ (>50 = +++)”.

In the case of “78 (TEFSNHINL; listed as Homo sapiens) [compound 78]”, the “Wells positive [%]” value with CD8+ T cells (Table 10b) was “++ (20%-49% = ++)”. Also, in the test with HLA-B*44:05, the “Peptide exchange” value is listed as “+++ (>50 = +++)”. On to “6 (AELVGPVIPQDW; listed as Homo sapiens) [compound 6]”, for which, in the test on CD8+ T cells (Table 10b), the “Wells positive [%]” value was “++ (20%-49% = ++)”. Moreover, the “Peptide exchange” value in the test with HLA-B*44:05 is given as “+++ (>50 = +++)”. The corresponding values for “44 (SEFGAPRW; listed as Homo sapiens) [compound 44]” are “++++ (>=70% = ++++)” and “+++ (>50 = +++)”. For “35 (RELVHMINW; listed as Homo sapiens) [compound 35]”, in that order: “++ (20%-49% = ++)” and “++++ (>75% = ++++)”. As to “57 (SEATHIITI; listed as Homo sapiens) [compound 57]”, in the test on CD8+ T cells (Table 10b), the “Wells positive [%]” value is “++++ (>=70% = ++++)”. Further, in the test with HLA-B*44:05, the “Peptide exchange” value is reported as “+++ (>50 = +++)”. In the case of “56 (ALEEGGGYIF; listed as Homo sapiens) [compound 56]”, the “Wells positive [%]” value in the test with CD8+ T cells (Table 10b) is recorded as “+ (<20% = +)”. For the same substance, the “Peptide exchange” value in the test with HLA-B*44:05 is reported as “+ (>10% = +)”. The corresponding values for “18 (QEAPRPASSL; listed as Homo sapiens) [compound 18]” are “+ (<20% = +)” and “+++ (>50 = +++)”. With “469 (SEAFPSRAL; listed as Homo sapiens) [compound 469]”, in the test on CD8+ T cells (Table 10a), the “Wells positive [%]” value is “+++ (50%-69% = +++)”. Still for that read-out and setting: next, “485 (NEHPSNNW; listed as Homo sapiens) [compound 485]”: “+ (<20% = +)”.

These data come from patent US12065471B2, “B*44 restricted peptides for use in immunotherapy against cancers and related methods” (Immatics Biotechnologies GmbH, priority 2018, dated 2024).
